# Measured values as given in US10512641B2, “Chloroquine induction par-4 and treatment of cancer” (University of Kentucky Research Foundation, priority 2015, dated 2019).
# Key:
# [1] = test system: Par-4; assay: Par-4 secretion in wild type or p53-null MEFs, Western blot; type: cell-based, mouse; settings: CQ 25 μM, Arylquin-1, Nutlin-3a 10 μM, 24 h
# [2] = test system: Par-4; settings: Burikhanov et al. (2014); cited from earlier work
# [3] = test system: Par-4; assay: ICC analysis of Par-4 localization in Rab8b coated vesicles; type: cell-based
# Description: An immunocytochemical (ICC) analysis was performed to determine the localization of Par-4 in Rab8b coated vesicles.
# [4] = test system: Par-4; assay: BFA sensitivity of CQ-induced Par-4 in MEFs; type: cell-based, mouse; settings: MEFs pre-treated with BFA 10 μg/ml 30 minutes, then CQ 50 μM 5 h
# Source text: (§4) The CM and lysates were examined by Western blot analysis with the indicated antibodies.
# [5] = test system: Par-4; assay: Par-4 secretion in conditioned medium of MEFs, Western blot; type: cell-based, mouse; settings: wild type (p53+/+) MEFs; CQ 1-100 μM, 24 h
# Source text: (§1) The conditioned medium (CM), as well as the whole-cell lysates were subjected to Western blot analysis with the antibodies specific for Par-4, Collagen (Col1A1), albumin, or actin. Col1A1 served as a loading control for protein secretion, as it is generally unchanged in response to the treatments. The samples were also subjected to SDS/PAGE and Coomassie blue staining to determine albumin levels in serum from the CM as another loading control.
# [6] = test system: Par-4; assay: Par-4 secretion in conditioned medium of normal human cells, Western blot; type: cell-based; settings: normal human PrSC, PrEC, HEL, HBEC; CQ 1-100 μM, 24 h
# Source text: as §1
# [7] = test system: Par-4; assay: Par-4 secretion in conditioned medium of prostate and lung cancer cell lines, Western blot; type: cell-based, human; settings: prostate cancer cells LNCaP, C4-2B, DU145, PC-3; CQ 1-100 μM, 24 h
# Source text: as §1
# [8] = test system: cancer cells; assay: Apoptosis (ICC for active caspase-3) of cells exposed to CQ-treated MEFs or their CM; type: cell-based, human
# Description: After 24 h, the cells were subjected to immunocytochemistry (ICC) for active caspase-3 and apoptotic cells were scored under a fluorescent microscope.
# After 24 h, the cells were scored for apoptosis.
# A total of three independent experiments were performed; and approximately 500 cells were scored in each experiment for apoptosis under a fluorescent microscope.
# [9] = test system: LLC1 cells; assay: Apoptosis of LLC1 cells by CM from CQ-treated MEFs; type: cell-based, mouse; settings: CQ 20 μM, 24 h; not with Par-4-/- MEFs
# Description: After 24 h, the cells were scored for apoptosis. *P<0.0001 by the Student's t-test.
# [10] = test system: H460 or LLC1 cells; assay: Subcutaneous H460 or LLC1 tumor xenografts in nude mice; type: in vivo, mouse; settings: LLC1- or H460-derived flank tumors, CQ 25 mg/kg IP once daily
# [11] = test system: UACA; assay: UACA and NF-κB-regulated gene expression, Western blot; type: cell-based; settings: for expression of UACA: 24 h
# Source text: as §4
# [12] = test system: Par-4; assay: Par-4 mRNA by qRT-PCR in MEFs; type: cell-based, mouse; settings: CQ 25 μM, 24 h, normalized to GAPDH
# Source text: The data were normalized relative to a GAPDH control. (see FIG. 8C).
# [13] = test system: Par-4; assay: Par-4 secretion in Rab8b-null and Rab8b reconstituted MEFs; type: cell-based, mouse
# Description: (§2) Testing was performed to determine whether the expression of Rab genes containing putative p53 binding sites in their promoter region were essential for Par-4 secretion.
# [14] = test system: Rab8b; assay: Rab8b and Rab8a expression (protein, real-time PCR); type: cell-based
# Description: as §2
# The guardian of the genome, p53 binds to a consensus motif 5′-PuPuPuC4(A/T)(A/T)G7PyPyPy
# [15] = test system: p53
# [16] = test system: p53; settings: MEFs, CQ 25 μM, 24 h
# [17] = test system: A549 lung cancer cells; settings: A549 cells, 0, 2, 4 Gy, CQ 10 μM or 20 μM
# [18] = test system: Mel 1617 and Mel 1617BR melanoma cancer cells; settings: CQ 1 μM or 5 μM, 0 and 4 Gy
# [19] = test system: Par-4; assay: Par-4 in serum of renal cell carcinoma patients given HCQ, Western blot; type: in vivo, human
# Description: Serum samples were collected from renal cell carcinoma patients who were given safe oral doses (400 mg daily for 2-weeks) of HCQ pre-operatively at the University of Pittsburgh, as part of a clinical trial in 2010-2011. Pre-HCQ treatment and post-HCQ treatment serum samples were collected and frozen. In 2013-2014, they were processed by Western blot analysis.
# (§3) Aliquots of pre-HCQ or post-HCQ treatment serum samples from the patient were transferred to cancer cell cultures (20% final concentration). After 24 h, the cells were scored for apoptosis by ICC for active caspase-3. Fetal bovine serum (FBS, 10%) was used as an additional control. An asterisk (*) indicates statistical significance (P<0.001) by the Student's t-test. […] Importantly, apoptosis of cancer cells by post-treatment serum from the patient was neutralized by the Par-4 antibody (P) or GRP78 antibody (G), but not by control antibody (C) (FIG. 2E).
# [20] = test system: cancer cells; assay: Ex vivo apoptosis of cancer cells by post-HCQ patient serum; type: cell-based, human; settings: PC-3, H460, HOP92, H1299; 20% serum, 24 h; relative to pre-HCQ serum
# Description: as §3
# [21] = test system: Par-4; assay: Par-4 secretion from MEFs treated with chloroquine, curcumin, ibuprofen or combinations; type: cell-based, mouse; settings: 24 h
# Description: To determine whether curcumin or ibuprofen enhanced the secretion of Par-4 in cells treated with chloroquine, MEFs were treated with chloroquine (25 μM), curcumin (5 μM and 10 μM) or ibuprofen (500 μM or 750 μM) or combinations of chloroquine and curcumin or ibuprofen for 24 hours at 37° C.
# as §1, with “lysates,” for “lysates”
compound,measurement,setting,value
CN(C)c1ccc2cc(-c3ccccc3F)c(N)nc2c1 [Arylquin-1],Par-4 secretion,[1],robust induction of Par-4 secretion
same,secretion of Par-4 from normal cells in mice,[2],can increase secretion of Par-4
C[C@H]1CCC/C=C/[C@@H]2C[C@H](O)C[C@H]2[C@H](O)/C=C/C(=O)O1 [BFA],entry of Par-4 into Rab8b vesicles,[3]; CQ-treated cells plus BFA,prevented Par-4 from entering the Rab8b vesicles
same,effect on CQ-induced Par-4 expression,[4],CQ-induced Par-4 expression was inhibited
"CCN(CC)CCCC(C)Nc1ccnc2cc(Cl)ccc12 (stereo not drawn) [CQ, chloroquine diphosphate]",secretion of Par-4 in the CM,[5],dose-dependent secretion of Par-4
same,secretion of Par-4 in the CM,[6],dose-dependent secretion of Par-4
same,Par-4 secretion,[7],neither induced Par-4 secretion
same,apoptosis of Par-4-resistant cancer cells with CQ-treated Par-4+/+ MEFs,"[8]; DU145, A549 cells (internal control), CQ 20 μM",resistant to apoptosis
same,apoptosis of cancer cells co-cultured with CQ-treated Par-4+/+ MEFs,"[8]; PC-3, H460, H1299, HOP92, KP7B cells, CQ 20 μM, not with Par-4-/- MEFs",sensitive to apoptosis
same,cancer cell apoptosis by CM of CQ-treated Par-4+/+ MEFs,[8]; inhibited by Par-4 antibody or GRP78 antibody,Cancer cell apoptosis was also induced
same,apoptosis of normal cells co-cultured with CQ-treated Par-4+/+ MEFs,"[8]; normal HEL cells, CQ 20 μM",not normal HEL cells
same,apoptosis of LLC1 cells by CM from CQ-treated Par-4+/+ MEFs,[9],induced apoptosis of LLC1 cells
same,growth of subcutaneous tumor xenografts (tumor volume),[10],failed to inhibit the growth
same,expression of UACA,"[11]; MEF and HEL, CQ 25 μM",inhibited the expression of UACA
same,UACA downregulation,[11]; cancer cells,failed to downregulate UACA
same,expression of UACA and NF-κB-regulated genes cIAP1 and XIAP,"[11]; p53-dependent, wild type vs p53-/- MEFs, CQ 25 μM",inhibited the expression of UACA and NF-κB-regulated genes cIAP1 and XIAP
same,expression of UACA,"[11]; p53 null MEFs, CQ 25 μM",not p53 null MEFs
same,Par-4 RNA level,[12],did not induce Par-4 at the RNA level
same,induction of Par-4 secretion,[13]; Rab8b-null MEF cells (not Rab8a-null MEF cells),failed to show induction of Par-4 secretion
same,Par-4 secretion,[13]; Rab8b-null MEFs transfected with mouse Rab8b expression construct,induced Par-4 secretion in Rab8b reconstituted cells
same,Rab8b induction,[14]; cancer cells,not in cancer cells
same,Rab8b induction,[14]; normal human cells,induced Rab8b in normal human cells
same,Rab8b protein levels,[14]; p53 wild type cells,enhanced Rab8b protein levels
same,Rab8b mRNA,[14]; quantitative real-time PCR,induced Rab8b mRNA in a p53-dependent manner
same,Rab8a expression,[14]; wild type MEFs,not Rab8a expression
same,Rab8b expression,[14]; wild type MEFs,induced Rab8b expression
same,co-localization of Par-4 with Rab8b containing vesicles,[3]; relative to vehicle,increase in the co-localization
same,p53-responsive genes p21 and PIG3,[15]; MEFs and normal mouse lung tissues,upregulation of p53-responsive genes p21 and PIG3
same,p53 induction,[15]; cancer cells,neither induced p53
same,p53-dependent transcription,[16],increased p53-dependent transcription
same,"inhibition of growth and proliferation, radiation plus CQ",[17],greater than additive effect
same,"inhibition of growth and proliferation, CQ plus ionizing radiation",[18],greater than additive effect
"CCN(CCO)CCCC(C)Nc1ccnc2cc(Cl)ccc12 (stereo not drawn) [HCQ, hydroxychloroquine]",induction of Par-4 in patient serum following HCQ treatment,"[19]; one renal cell carcinoma patient, HCQ 400 mg daily for 2 weeks",~3 fold
same,Par-4 levels in patient serum,"[19]; renal cell carcinoma patients, HCQ 400 mg daily oral for 2 weeks, post vs pre treatment",elevated levels of Par-4 relative to pre-treatment levels
same,ex vivo apoptosis of cancer cells with post-HCQ treatment serum,[20],underwent apoptosis
COc1ccc(C2=N[C@@H](c3ccc(Cl)cc3)[C@@H](c3ccc(Cl)cc3)N2C(=O)N2CCNC(=O)C2)c(OC(C)C)c1 [Nutlin-3a],Par-4 secretion,[1],induced Par-4 secretion in a p53-dependent manner
same,secretion of Par-4 from normal cells in mice,[2],can increase secretion of Par-4
O=C(Nc1cc(Cl)cc2c1[nH]c1cnccc12)c1cccnc1 [PS-1145],apoptosis of A549 cells by CM from CQ-treated MEFs,"[8]; A549 cells pretreated with PS-1145 10 μM, 24 h",sensitized to apoptosis
same,secretion of Par-4 from normal cells in mice,[2],can increase secretion of Par-4
COc1cc(/C=C/C(=O)CC(=O)/C=C/c2ccc(O)c(OC)c2)ccc1O [curcumin],Par-4 secretion,[21]; curcumin alone 5 μM and 10 μM,enhances Par-4 secretion
CC(C)Cc1ccc(C(C)C(=O)O)cc1 (stereo not drawn) [ibuprofen],secretion of Par-4 compared with chloroquine alone,[21]; ibuprofen 750 μM with chloroquine 25 μM,significantly improves the secretion of Par-4
same,production or secretion of Par-4,[21]; ibuprofen alone 500 μM or 750 μM,does not enhance the production or secretion of Par-4
